Measured values as given in patent US20110053966A1, “SYNERGISTIC FUNGICIDAL COMPOSITIONS CONTAINING A 5-FLUOROPYRIMIDINE DERIVATIVE FOR FUNGAL CONTROL IN CEREALS” (DOW AGROSCIENCES LLC, priority 2009, published 2011).

Experiments:
[1] = test system: Septoria tritici (SEPTTR); assay: 3-day curative test (3DC) vs. leaf blotch of wheat; assay type: in vivo; conditions: Zymoseptoria tritici, read-out: % DC Obs (percent disease control observed); for pest or weed control at 0.2 ppm: application rate 0.2 ppm; for pest or weed control at 1.5 g/ha: application rate 1.5 g ai/Ha, SC formulation, track sprayer
Procedure: (§1) Evaluation of Curative and Protectant Activity of Fungicide Mixtures vs. Leaf Blotch of Wheat (Mycosphaerella graminicola; anamorph: Septoria tritici; Bayer code: SEPTTR)
(§2) Wheat plants (variety Yuma) were grown from seed in a greenhouse in plastic pots with a surface area of 27.5 square centimeters (cm2) containing 50% mineral soil/50% soil-less Metro mix, with 8-12 seedlings per pot. The plants were employed for testing when the first leaf was fully emerged, which typically took 7 to 8 days after planting. Test plants were inoculated with an aqueous spore suspension of Septoria tritici either 3-days prior to (3-day curative test; 3DC) or 1-day after fungicide treatments (1-day protectant test; 1DP). After inoculation the plants were kept at 100% relative humidity (one day in a dark dew chamber followed by two days in a lighted mist chamber) to permit spores to germinate and infect the leaf. The plants were then transferred to a greenhouse until disease symptoms were fully expressed.
(§3) For the mixture studies with compound of Formula IA: Treatments consisted of fungicides, including a compound of Formula IA, epoxiconazole, prothioconazole, azoxystrobin, pyraclostrobin, penthiopyrad, isopyrazam, bixafen, boscalid, prochloraz, chlorothalonil, and isobutyric acid (3S,6S,7R,8R)-8-benzyl-3-[(3-isobutyryloxymethoxy-4-methoxypyridine-2-carbonyl)-amino]-6-methyl-4,9-dioxo-[1,5]dioxonan-7-yl ester (compound A), applied either individually or as two-way mixtures with a compound of Formula IA. Technical grades of materials were dissolved in acetone to make stock solutions, which were then used to perform three-fold dilutions in acetone either for each individual fungicide component or for the two-way mixtures. Desired fungicide rates were obtained after mixing dilutions with nine volumes of water containing 110 parts per million (ppm) Triton X-100. Ten mL fungicide solutions were applied onto six pots of plants using an automated booth sprayer, which utilized two 6218-1/4 JAUPM spray nozzles operating at 20 pounds per square inch (psi) set at opposing angles to cover both leaf surfaces. All sprayed plants were allowed to air dry prior to further handling. Control plants were sprayed in the same manner with the solvent blank.
(§4) For the mixture studies with compound of Formula IB: Compound IB and the compound B or their two-way mixtures were diluted in three-fold series using suspension concentrate (SC) formulations in 0.1% Trycol 5941. Spray solutions were applied onto plants using a track sprayer with an application volume of 200 Liters/hectare (L/Ha).
(§5) When disease reached 80 to 100% on the control plants, infection levels were assessed on treated plants visually and scored on a scale of 0 to 100 percent. Percentage of disease control was then calculated using the ratio of disease on treated plants relative to control plants.
(§6) Colby's equation was used to determine the fungicidal effects expected from the mixtures. (See Colby, S. R. Calculation of the synergistic and antagonistic response of herbicide combinations. Weeds 1967, 15, 20-22.)
(§7) The following equation was used to calculate the expected activity of mixtures containing two active ingredients, A and B:
(§8) A=observed efficacy of active component A at the same concentration as used in the mixture;
(§9) B=observed efficacy of active component B at the same concentration as used in the mixture.

[2] = test system: Septoria tritici (SEPTTR); assay: 1-day protectant test (1DP) vs. leaf blotch of wheat; assay type: in vivo; conditions: Zymoseptoria tritici, read-out: % DC Obs (percent disease control observed); for pest or weed control at 0.2 ppm: application rate 0.2 ppm; for pest or weed control at 1.5 g/ha: application rate 1.5 g ai/Ha, SC formulation, track sprayer
Procedure: as §1, §2, §3, §4, §5, §6, §7, §8, §9

[3] = 3DC SEPTTR, application rate 0.6 ppm
[4] = 3DC SEPTTR, application rate 1.8 ppm
[5] = 1DP SEPTTR, application rate 0.6 ppm
[6] = 1DP SEPTTR, application rate 1.8 ppm
[7] = 3DC SEPTTR, application rate 5.6 ppm
[8] = 1DP SEPTTR, application rate 5.6 ppm

Question: For Cc1ccc(COc2ncc(F)c(N)n2)cc1 [Compound IA], which pest or weed control at 0.03 ppm ([1]; 3DC SEPTTR, application rate 0.03 ppm) is on record?
Answer: 2%

Question: And the pest or weed control at 0.1 ppm ([1]; 3DC SEPTTR, application rate 0.1 ppm)?
Answer: 4%

Question: And the pest or weed control at 0.3 ppm ([1]; 3DC SEPTTR, application rate 0.3 ppm)?
Answer: 10%

Question: And the pest or weed control at 0.9 ppm ([1]; 3DC SEPTTR, application rate 0.9 ppm)?
Answer: 44%

Question: What about the pest or weed control at 2.8 ppm ([1]; 3DC SEPTTR, application rate 2.8 ppm) of the same compound?
Answer: 94%

Question: What about the pest or weed control at 8.3 ppm ([1]; 3DC SEPTTR, application rate 8.3 ppm) of the same compound?
Answer: 100%

Question: And the pest or weed control at 0.03 ppm ([2]; 1DP SEPTTR, application rate 0.03 ppm)?
Answer: 2%

Question: And the pest or weed control at 0.1 ppm ([2]; 1DP SEPTTR, application rate 0.1 ppm)?
Answer: 3%

Question: What about the pest or weed control at 0.3 ppm ([2]; 1DP SEPTTR, application rate 0.3 ppm) of the same compound?
Answer: 0%

Question: And the pest or weed control at 0.9 ppm ([2]; 1DP SEPTTR, application rate 0.9 ppm)?
Answer: 22%

Question: And the pest or weed control at 2.8 ppm ([2]; 1DP SEPTTR, application rate 2.8 ppm)?
Answer: 85%

Question: What about the pest or weed control at 8.3 ppm ([2]; 1DP SEPTTR, application rate 8.3 ppm) of the same compound?
Answer: 98%

Question: How did the pest or weed control at 0.2 ppm ([1]; 3DC SEPTTR) turn out when Cn1cc(C(=O)Nc2ccc(F)cc2-c2ccc(Cl)c(Cl)c2)c(C(F)F)n1 [Bixafen, N-(3′,4′-dichloro-5-fluoro[1,1′-biphenyl]-2-yl)-3-(difluoromethyl)-1-methyl-1H-pyrazole-4-carboxamide] was run?
Answer: 6%

Question: And the pest or weed control at 0.6 ppm [1, 3]?
Answer: 4%

Question: And the pest or weed control at 1.8 ppm [1, 4]?
Answer: 14%

Question: And the pest or weed control at 0.2 ppm ([2]; 1DP SEPTTR)?
Answer: 3%

Question: What about the pest or weed control at 0.6 ppm [2, 5] of the same compound?
Answer: 7%

Question: What about the pest or weed control at 1.8 ppm [2, 6] of the same compound?
Answer: 12%

Question: What does the source list for OC(Cc1ccccc1Cl)(Cn1[nH]cnc1=S)C1(Cl)CC1 (stereo not drawn) [Prothioconazole, 2-[2-(1-chlorocyclopropyl)-3-(2-chlorophenyl)-2-hydroxypropyl]-1,2-dihydro-3H-1,2,4-triazole-3-thione]?
Answer: pest or weed control at 0.6 ppm [1, 3]: 10%; pest or weed control at 1.8 ppm [1, 4]: 8%; pest or weed control at 5.6 ppm [1, 7]: 20%; pest or weed control at 0.6 ppm [2, 5]: 2%; pest or weed control at 1.8 ppm [2, 6]: 2%; pest or weed control at 5.6 ppm [2, 8]: 25%

Question: Which pest or weed control at 0.6 ppm [1] does the source give for CC(C)C1C2CCC1c1c(NC(=O)c3cn(C)nc3C(F)F)cccc12 (stereo not drawn) [Isopyrazam, 3-(difluoromethyl)-1-methyl-N-[1,2,3,4-tetrahydro-9-(1-methylethyl)-1,4-methanonaphthalen-5-yl]-1H-pyrazole-4-carboxamide] here?
Answer: 10%

Question: And the pest or weed control at 1.8 ppm [1]?
Answer: 18%

Question: What about the pest or weed control at 0.6 ppm [2] of the same compound?
Answer: 15%

Question: What about the pest or weed control at 1.8 ppm [2] of the same compound?
Answer: 23%

Question: What does the source list for COc1ccnc(C(=O)N[C@H]2COC(=O)[C@H](Cc3ccccc3)[C@@H](OC(=O)C(C)C)[C@H](C)OC2=O)c1OCOC(=O)C(C)C [A, Isobutyric acid (3S,6S,7R,8R)-8-benzyl-3-[(3-isobutyryloxymethoxy-4-methoxy-pyridine-2-carbonyl)-amino]-6-methyl-4,9-dioxo-[1,5]dioxonan-7-yl ester]?
Answer: pest or weed control at 0.45 ppm [1]: 22%; pest or weed control at 1.35 ppm [1]: 52%; pest or weed control at 0.45 ppm [2]: 3%; pest or weed control at 1.35 ppm [2]: 80%

Question: With O=C(Nc1ccccc1-c1ccc(Cl)cc1)c1cccnc1Cl [Boscalid, 2-chloro-N-(4′-chloro[1,1′-biphenyl]-2-yl)-3-pyridinecarboxamide] as the compound, how does the pest or weed control at 1.8 ppm [1, 4] read?
Answer: 12%

Question: What about the pest or weed control at 5.6 ppm [1, 7] of the same compound?
Answer: 34%

Question: What about the pest or weed control at 1.8 ppm [2, 6] of the same compound?
Answer: 5%

Question: What about the pest or weed control at 5.6 ppm [2, 8] of the same compound?
Answer: 30%

Question: With Nc1nc(OCc2ccc(F)cc2)ncc1F [Compound IB] as the compound, how does the pest or weed control at 1.5 g/ha ([1]; 3DC SEPTTR) read?
Answer: 74%

Question: What about the pest or weed control at 1.5 g/ha ([2]; 1DP SEPTTR) of the same compound?
Answer: 46%

Question: CO/C=C(/C(=O)OC)c1ccccc1Oc1cc(Oc2ccccc2C#N)ncn1 [Azoxystrobin, methyl (αE)-2-[[6-(2-cyanophenoxy)-4-pyrimidinyl]oxy]-α-(methoxymethylene)benzeneacetate] was tested. Which pest or weed control at 0.6 ppm [1, 3] did it give?
Answer: 10%

Question: What about the pest or weed control at 1.8 ppm [1, 4] of the same compound?
Answer: 14%

Question: What about the pest or weed control at 5.6 ppm [1, 7] of the same compound?
Answer: 20%

Question: What about the pest or weed control at 0.6 ppm [2, 5] of the same compound?
Answer: 3%

Question: What about the pest or weed control at 1.8 ppm [2, 6] of the same compound?
Answer: 3%

Question: What about the pest or weed control at 5.6 ppm [2, 8] of the same compound?
Answer: 33%

Question: Which pest or weed control at 13.5 ppm ([1]; 3DC SEPTTR, application rate 13.5 ppm) does the source give for N#Cc1c(Cl)c(Cl)c(Cl)c(C#N)c1Cl [Chlorothalanil, 2,4,5,6-tetrachloro-1,3-benzenedicarbonitrile] here?
Answer: 4%

Question: And the pest or weed control at 42 ppm ([1]; 3DC SEPTTR, application rate 42 ppm)?
Answer: 4%

Question: And the pest or weed control at 125 ppm ([1]; 3DC SEPTTR, application rate 125 ppm)?
Answer: 6%

Question: And the pest or weed control at 13.5 ppm ([2]; 1DP SEPTTR, application rate 13.5 ppm)?
Answer: 0%

Question: And the pest or weed control at 42 ppm ([2]; 1DP SEPTTR, application rate 42 ppm)?
Answer: 2%

Question: And the pest or weed control at 125 ppm ([2]; 1DP SEPTTR, application rate 125 ppm)?
Answer: 0%

Question: How did the pest or weed control at 0.125 ppm ([1]; 3DC SEPTTR, application rate 0.125 ppm) turn out when Fc1ccc([C@]2(Cn3cncn3)O[C@H]2c2ccccc2Cl)cc1 [Epoxiconazole, re1-1-[[(2R,3S)-3-(2-chlorophenyl)-2-(4-fluorophenyl)oxiranyl]methyl]-1H-1,2,4-triazole] was run?
Answer: 18%

Question: What about the pest or weed control at 0.375 ppm ([1]; 3DC SEPTTR, application rate 0.375 ppm) of the same compound?
Answer: 46%

Question: And the pest or weed control at 0.125 ppm ([2]; 1DP SEPTTR, application rate 0.125 ppm)?
Answer: 2%

Question: And the pest or weed control at 0.375 ppm ([2]; 1DP SEPTTR, application rate 0.375 ppm)?
Answer: 83%

Question: How did the pest or weed control at 0.2 ppm ([1]; 3DC SEPTTR) turn out when CC(C)CC(C)c1sccc1NC(=O)c1cn(C)nc1C(F)(F)F (stereo not drawn) [Penthiopyrad, N-[2-(1,3-dimethylbutyl)-3-thienyl]-1-methyl-3-(trifluoromethyl)-1H-pyrazole-4-carboxamide] was run?
Answer: 8%

Question: What about the pest or weed control at 0.6 ppm [1, 3] of the same compound?
Answer: 4%

Question: What about the pest or weed control at 1.8 ppm [1, 4] of the same compound?
Answer: 4%

Question: And the pest or weed control at 0.2 ppm ([2]; 1DP SEPTTR)?
Answer: 2%

Question: And the pest or weed control at 0.6 ppm [2, 5]?
Answer: 10%

Question: What about the pest or weed control at 1.8 ppm [2, 6] of the same compound?
Answer: 17%

Question: Which results are given for CCCN(CCOc1c(Cl)cc(Cl)cc1Cl)C(=O)n1ccnc1 [Prochloraz, N-propyl-N-[2-(2,4,6-trichlorophenoxy)ethyl]-1H-imidazole-1-carboxamide]?
Answer: pest or weed control at 1.8 ppm [1]: 24%; pest or weed control at 5.6 ppm [1]: 22%; pest or weed control at 1.8 ppm [2]: 10%; pest or weed control at 5.6 ppm [2]: 33%

Question: Which pest or weed control at 1.5 g/ha ([1]; 3DC SEPTTR) does the source give for Fc1cc(Oc2cc(C(F)(F)F)ccn2)ccc1CCNc1ncnc2c(F)ccc(F)c12 [B, (5,8-Difluoroquinazolin-4-yl)-{2-[2-fluoro-4-(4-trifluoromethylpyridin-2-yloxy)-phenyl]-ethyl}-amine] here?
Answer: 41%

Question: What about the pest or weed control at 1.5 g/ha ([2]; 1DP SEPTTR) of the same compound?
Answer: 36%
